ChEMBL document CHEMBL3259665, “Development of bacterial transglycosylase inhibitors as new antibiotics: moenomycin A treatment for drug-resistant Helicobacter pylori” (Bioorg Med Chem Lett, 2014)
Values after ≈ are worked out from the molar mass of the structure shown.

Legend:
Helicobacter pylori [1] = experiment: Antimicrobial activity against Helicobacter pylori isolated from gastrointestinal disease patient after 72 hrs by Etest method; format: functional
[2] = Binding affinity to Helicobacter pylori transglycosylase
Helicobacter pylori [3] = experiment: Antimicrobial activity against Helicobacter pylori; format: functional

SMILES | MIC90 (Helicobacter pylori [1]) [mg/L] | Kd [2] [µM] | MIC (Helicobacter pylori [3]) [µM]
CC[C@H]1OC(=O)[C@H](C)[C@@H](O[C@H]2C[C@@](C)(OC)[C@@H](O)[C@H](C)O2)[C@H](C)[C@@H](O[C@@H]2O[C@H](C)C[C@H](N(C)C)[C@H]2O)[C@](C)(OC)C[C@@H](C)C(=O)[C@H](C)[C@@H](O)[C@]1(C)O [CLARITHROMYCIN] | 8 (≈ 10.7 µM) |  | 
C[C@H]1COc2c(N3CCN(C)CC3)c(F)cc3c(=O)c(C(=O)O)cn1c23.C[C@H]1COc2c(N3CCN(C)CC3)c(F)cc3c(=O)c(C(=O)O)cn1c23.O [LEVOFLOXACIN] | 1 |  | 
Cc1ncc([N+](=O)[O-])n1CCO [METRONIDAZOLE] | 16 (≈ 93.5 µM) |  | 
C=C(C/C=C(\C)CCC=C(C)C)CCC(C)(C)/C=C/CC/C(C)=C/CO[C@@H](COP(=O)(O)O[C@H]1O[C@H](C(N)=O)[C@@](C)(O)[C@H](OC(N)=O)[C@H]1O[C@@H]1O[C@H](CO[C@@H]2O[C@H](CO)[C@@H](O)[C@H](O)[C@H]2O)[C@@H](O[C@@H]2O[C@H](C)[C@@H](O[C@@H]3O[C@H](C(=O)NC4=C(O)CCC4=O)[C@H](O)[C@H](O)[C@H]3O)[C@H](O)[C@H]2NC(C)=O)[C@H](O)[C@H]1NC(C)=O)C(=O)O [MOENOMYCIN A] | 2 (≈ 1.26 µM) | 0.025 | 1.3 (≈ 2.06 µg/mL)
CN(C)[C@@H]1C(O)=C(C(N)=O)C(=O)[C@@]2(O)C(O)=C3C(=O)c4c(O)cccc4[C@@](C)(O)[C@H]3C[C@@H]12 [TETRACYCLINE] | 0.5 (≈ 1.13 µM) |  | 
